{"source": "patent US20050137220A1", "about": "(Pharmacia Corporation, priority 2003, published 2005)", "note": "Values joined by “and” are separate entries in the source; they are usually repeats but may differ in a detail not shown here. Identical values can stand only once. Counter-ions that a name gives are not always drawn."}
{"biological_target": "MK-2 (Homo sapiens, UniProt P49137)", "sequence (P49137 whole entry, species assumed)": "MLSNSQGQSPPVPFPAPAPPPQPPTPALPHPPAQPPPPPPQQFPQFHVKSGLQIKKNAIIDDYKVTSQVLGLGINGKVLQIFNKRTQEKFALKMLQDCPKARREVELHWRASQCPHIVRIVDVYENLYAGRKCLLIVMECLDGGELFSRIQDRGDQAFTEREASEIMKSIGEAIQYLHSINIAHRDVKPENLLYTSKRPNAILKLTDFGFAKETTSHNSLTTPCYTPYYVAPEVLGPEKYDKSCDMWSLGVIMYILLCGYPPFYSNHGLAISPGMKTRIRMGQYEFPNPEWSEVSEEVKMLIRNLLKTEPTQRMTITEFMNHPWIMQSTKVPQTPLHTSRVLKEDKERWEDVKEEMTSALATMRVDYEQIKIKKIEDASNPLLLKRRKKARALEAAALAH", "test": "Determination of MK-2 IC50 (phosphorylation of HSP-peptide, anion exchange resin capture assay)", "assay_type": "biochemical", "details": "MK-2 Avg. IC50, additional values are replicate IC50 experiments; mixture of stereoisomers implied unless otherwise noted", "units": {"IC50": "µM"}}
{"smiles": "COc1ccc2[nH]c3c(c2c1)CCNC3=S", "note": "[Example 97, 6-methoxy-2,3,4,9-tetrahydro-1H-beta-carboline-1-thione]", "IC50": 34.8}
{"biological_target": "MK-2 (Homo sapiens, UniProt P49137)", "test": "Determination of MK-2 IC50 (phosphorylation of HSP-peptide, anion exchange resin capture assay)", "assay_type": "biochemical", "details": "additional values are replicate IC50 experiments; mixture of stereoisomers implied unless otherwise noted; read-out: MK-2 Avg. IC50"}
{"smiles": "COc1ccc2[nH]c3c(c2c1)CCC(C)(C)C3=NO", "note": "(mixture of isomers) [Example 272, 6-methoxy-2,2-dimethyl-2,3,4,9-tetrahydro-1H-carbazol-1-one oxime]", "IC50": "> 200 µM"}
{"smiles": "COC(=O)[C@@H]1Cc2c([nH]c3ccccc23)C(C)(C(=O)O)N1", "note": "(mixture of isomers) [Example 228, 3-(methoxycarbonyl)-1-methyl-2,3,4,9-tetrahydro-1H-beta-carboline-1-carboxylic acid]", "IC50": "> 200 µM"}
{"smiles": "CN1CCc2c([nH]c3ccc(OCc4ccccc4)cc23)C1C(=O)O", "note": "(stereo not drawn) [Example 36, sodium 6-(benzyloxy)-2-methyl-2,3,4,9-tetrahydro-1H-beta-carboline-1-carboxylate]", "IC50": "4.83 µM and 4.96 µM"}
{"smiles": "COc1ccc2[nH]c3c(c2c1)CC(CCCO)NC3=O", "note": "(stereo not drawn) [Example 81, 3-(3-hydroxypropyl)-6-methoxy-2,3,4,9-tetrahydro-1H-beta-carbolin-1-one]", "IC50": "20.4 µM"}
{"smiles": "O=C(O)C1NCCc2c1[nH]c1ccc(OCCc3ccccc3)cc21", "note": "(stereo not drawn) [Example 87, 6-(2-phenylethoxy)-2,3,4,9-tetrahydro-1H-beta-carboline-1-carboxylic acid hydrochloride]", "IC50": "27.9 µM"}
{"smiles": "COc1ccc2[nH]c3c(=O)[nH]ccc3c2c1", "note": "[Example 95, 6-methoxy-2,9-dihydro-1H-beta-carbolin-1-one]", "IC50": "31.8 µM"}
{"smiles": "CCOC(=O)c1cccc2c3c([nH]c12)CCNC3=O", "note": "[Example 96, ethyl 1-oxo-2,3,4,5-tetrahydro-1H-pyrido[4,3-b]indole-6-carboxylate]", "IC50": "34.5 µM"}
{"smiles": "O=C(O)COc1ccc2[nH]c3c(c2c1)CCNC3C(=O)O", "note": "(stereo not drawn) [Example 98, 6-(carboxymethoxy)-2,3,4,9-tetrahydro-1H-beta-carbolin-1-carboxylic acid]", "IC50": "35.5 µM"}
{"smiles": "COC(=O)c1cccc2c3c([nH]c12)CCCC3=O", "note": "[Example 100, methyl 4-oxo-2,3,4,9-tetrahydro-1H-carbazole-8-carboxylate]", "IC50": "39.8 µM"}
{"smiles": "O=C(O)C1NCCc2c1[nH]c1ccc(OCc3ccccn3)cc21", "note": "(stereo not drawn) [Example 101, 6-(pyridin-2-ylmethoxy)-2,3,4,9-tetrahydro-1H-beta-carboline-1-carboxylic acid hydrochloride]", "IC50": "39.9 µM"}
{"smiles": "O=C(O)C1NCCc2c1[nH]c1ccc(OCc3cccnc3)cc21", "note": "(stereo not drawn) [Example 102, 6-(pyridin-3-ylmethoxy)-2,3,4,9-tetrahydro-1H-beta-carboline-1-carboxylic acid hydrochloride]", "IC50": "42.6 µM"}
{"smiles": "CS(=O)(=O)c1ccc(COc2ccc3[nH]c4c(c3c2)CCNC4C(=O)O)cc1", "note": "(stereo not drawn) [Example 104, 6-{[4-(methylsulfonyl)benzyl]oxy}-2,3,4,9-tetrahydro-1H-beta-carboline-1-carboxylic acid hydrochloride]", "IC50": "44.9 µM"}
{"smiles": "NNC(=O)c1ccc2[nH]c3c(c2c1)CCNC3C(=O)O", "note": "(stereo not drawn) [Example 107, 6-(hydrazinocarbonyl)-2,3,4,9-tetrahydro-1H-beta-carboline-1-carboxylic acid]", "IC50": "48.6 µM"}
{"smiles": "O=C1NCCc2c1[nH]c1ccc(O)cc21", "note": "[Example 108, 6-hydroxy-2,3,4,9-tetrahydro-1H-beta-carbolin-1-one]", "IC50": "48.9 µM"}
{"smiles": "O/N=C1\\CCCc2c1[nH]c1ccccc21", "note": "[Example 109, 2,3,4,9-tetrahydro-1H-carbazol-1-one oxime]", "IC50": "49.9 µM"}
{"smiles": "CCOC(=O)c1ccc2c3c([nH]c2c1)CCNC3=O", "note": "[Example 110, ethyl 1-oxo-2,3,4,5-tetrahydro-1H-pyrido[4,3-b]indole-7-carboxylate]", "IC50": "50.1 µM"}
{"smiles": "O=C(O)C1c2c(c3ccccc3n2Cc2ccccc2)CCN1Cc1cccc(C(F)(F)F)c1", "note": "(stereo not drawn) [Example 112, 1H-Pyrido[3,4-b]indole-1-carboxylic acid, 2,3,4,9-tetrahydro-9-(phenylmethyl)-2-[[3-(trifluoromethyl)phenyl]methyl]- or 9-benzyl-2-[3-(trifluoromethyl)benzyl]-2,3,4,9-tetrahydro-1H-beta-carboline-1-carboxylic acid]", "IC50": "53.7 µM"}
{"smiles": "COc1ccc2[nH]c3c(c2c1)C(Cc1ccc(CO)cc1)CNC3C(=O)O", "note": "(stereo not drawn) [Example 114, 4-[4-(hydroxymethyl)benzyl]-6-methoxy-2,3,4,9-tetrahydro-1H-beta-carboline-1-carboxylic acid]", "IC50": "61.4 µM"}
{"smiles": "COc1ccc2[nH]c3c(c2c1)CC(CC#N)NC3=O", "note": "(stereo not drawn) [Example 116, (6-methoxy-1-oxo-2,3,4,9-tetrahydro-1H-beta-carbolin-3-yl)acetontrile]", "IC50": "68.7 µM"}
{"smiles": "O=C1NCCc2c1[nH]c1ccc(Br)cc21", "note": "[Example 117, 6-bromo-2,3,4,9-tetrahydro-1H-beta-carbolin-1-one]", "IC50": "69.6 µM"}
{"smiles": "COc1ccc2[nH]c3c(c2c1)C(Cc1cccc(C(F)(F)F)c1)CNC3C(=O)O", "note": "(stereo not drawn) [Example 118, 6-methoxy-4-[3-(trifluoromethyl)benzyl]-2,3,4,9-tetrahydro-1H-beta-carboline-1-carboxylic acid]", "IC50": "70.9 µM"}
{"smiles": "COC(=O)c1ccc(COc2ccc3[nH]c4c(c3c2)CCNC4C(=O)O)cc1", "note": "(stereo not drawn) [Example 119, 6-{[4-(methoxycarbonyl)benzyl]oxy}-2,3,4,9-tetrahydro-1H-beta-carboline-1-carboxylic acid hydrochloride]", "IC50": "71.9 µM"}
{"smiles": "O=C1NCCc2c1[nH]c1ccc(I)cc21", "note": "[Example 120, 6-iodo-2,3,4,9-tetrahydro-1H-beta-carbolin-1-one]", "IC50": "75.2 µM"}
{"smiles": "Cc1ccc2[nH]c3c(c2c1)CCC/C3=N\\O", "note": "[Example 123, 6-methyl-2,3,4,9-tetrahydro-1H-carbazol-1-one oxime]", "IC50": "82.9 µM and 88.1 µM"}
{"smiles": "O=C1NCCc2c1[nH]c1ccc(Cl)cc21", "note": "[Example 125, 1H-Pyrido[3,4-b]indol-1-one, 6-chloro-2,3,4,9-tetrahydro- or 6-chloro-2,3,4,9-tetrahydro-1H-beta-carbolin-1-one]", "IC50": "89.6 µM"}
{"smiles": "O=C(O)C1NCCc2c1[nH]c1ccc(OCc3ccc4ccccc4c3)cc21", "note": "(stereo not drawn) [Example 127, 6-(2-naphthylmethoxy)-2,3,4,9-tetrahydro-1H-beta-carboline-1-carboxylic acid hydrochloride]", "IC50": "91.3 µM"}
{"smiles": "C=CCN1CCc2c([nH]c3ccc(OC)cc23)C1C(=O)O", "note": "(stereo not drawn) [Example 128, potassium 2-allyl-6-methoxy-2,3,4,9-tetrahydro-1H-beta-carboline-1-carboxylate]", "IC50": "95.1 µM and 98.2 µM"}
{"smiles": "CCOC(=O)CCCOc1ccc2[nH]c3c(c2c1)CCNC3C(=O)O", "note": "(stereo not drawn) [Example 130, 6-(4-ethoxy-4-oxobutoxy)-2,3,4,9-tetrahydro-1H-beta-carboline-1-carboxylic acid hydrochloride]", "IC50": "100 µM"}
{"smiles": "COc1cc2[nH]c3c(c2cc1OC)CCCC3=NO", "note": "[Example 131, 6,7-dimethoxy-2,3,4,9-tetrahydro-1H-carbazol-1-one oxime]", "IC50": "100 µM"}
{"smiles": "COc1ccc2[nH]c3c(c2c1)CCC3=NO", "note": "[Example 132, 7-methoxy-1,4-dihydrocyclopenta[b]indol-3(2H)-one oxime]", "IC50": "104 µM"}
{"smiles": "CCOC(=O)c1ccc(COc2ccc3[nH]c4c(c3c2)CCNC4C(=O)O)o1", "note": "(stereo not drawn) [Example 133, 6-{[5-(ethoxycarbonyl)-2-furyl]methoxy}-2,3,4,9-tetrahydro-1H-beta-carboline-1-carboxylic acid]", "IC50": "105 µM"}
{"smiles": "COCCOc1ccc2[nH]c3c(c2c1)CCNC3C(=O)O", "note": "(stereo not drawn) [Example 135, 6-(2-methoxyethoxy)-2,3,4,9-tetrahydro-1H-beta-carboline-1-carboxylic acid]", "IC50": "110 µM"}
{"smiles": "O=C(O)C1NCCc2c1[nH]c1ccc(OCc3ccc(Cl)cc3)cc21", "note": "(stereo not drawn) [Example 136, 6-[(4-chlorobenzyl)oxy]-2,3,4,9-tetrahydro-1H-beta-carboline-1-carboxylic acid]", "IC50": "112 µM"}
{"smiles": "O=C(O)C1NCCc2c1[nH]c1ccc(OCc3ccc(C(F)(F)F)cc3)cc21", "note": "(stereo not drawn) [Example 138, 6-{[4-(trifluoromethyl)benzyl]oxy}-2,3,4,9-tetrahydro-1H-beta-carboline-1-carboxylic acid hydrochloride hydrate]", "IC50": "115 µM"}
{"smiles": "O=C(O)C1NCCc2c1[nH]c1ccc(OCCCc3ccccc3)cc21", "note": "(stereo not drawn) [Example 139, 6-(3-phenylpropoxy)-2,3,49-tetrahydro-1H-beta-carboline-1-carboxylic acid]", "IC50": "117 µM"}
{"smiles": "COc1ccc2[nH]c3c(c2c1)CCN(Cc1ccc(C(F)(F)F)cc1)C3C(=O)O", "note": "(stereo not drawn) [Example 141, 6-methoxy-2-[4-(trifluoromethyl)benzyl]-2,3,4,9-tetrahydro-1H-beta-carboline-1-carboxylic acid]", "IC50": "119 µM"}
{"smiles": "COC(=O)c1cccc2[nH]c3c(c12)CCNC3C(=O)O", "note": "(stereo not drawn) [Example 142, 5-(methoxycarbonyl)-2,3,4,9-tetrahydro-1H-beta-carboline-1-carboxylic acid hydrochloride hydrate]", "IC50": "121 µM"}
{"smiles": "COc1ccc(Oc2ccc3[nH]c4c(c3c2)CCC/C4=N\\O)cc1", "note": "[Example 144, 6-(4-methoxyphenoxy)-2,3,4,9-tetrahydro-1H-carbazol-1-one oxime]", "IC50": "130 µM"}
{"smiles": "COC(=O)CCC1Cc2c([nH]c3ccc(OC)cc23)C(=O)N1", "note": "(stereo not drawn) [Example 147, methyl 3-(6-methoxy-1-oxo-2,3,4,9-tetrahydro-1H-beta-carbolin-3-yl)propanoate]", "IC50": "136 µM"}
{"smiles": "CCCC1Cc2c([nH]c3ccc(OC)cc23)C(C(=O)O)N1", "note": "(stereo not drawn) [Example 148, 6-methoxy-3-propyl-2,3,4,9-tetrahydro-1H-beta-carboline-1-carboxylic acid]", "IC50": "137 µM"}
{"smiles": "COc1ccc2[nH]c3c(c2c1)CCNS3(=O)=O", "note": "[Example 153, 6-methoxy-2,3,4,9-tetrahydro[1,2]thiazino[6,5-b]indole 1,1-dioxide]", "IC50": "155 µM"}
{"smiles": "ON=C1CCCc2c1[nH]c1ccc(C(F)(F)F)cc21", "note": "[Example 154, 6-(trifluoromethyl)-2,3,4,9-tetrahydro-1H-carbazol-1-one oxime]", "IC50": "156 µM"}
{"smiles": "CCOC(=O)CNC(=O)COc1ccc2[nH]c3c(c2c1)CCNC3C(=O)O", "note": "(stereo not drawn) [Example 155, 6-[2-(2-ethoxy-2-oxoethylamino)-2-oxoethoxy]-2,3,4,9-tetrahydro-1H-beta-carboline-1-carboxylic acid hydrochloride]", "IC50": "164 µM"}
